In PubChem BioAssay AID1259407 (Chemical Carcinogenesis Research Information System (CCRIS), 2018):
The source made the active and inactive calls. No rule for the calls is given here.

Tested on: CCRIS mutagenicity, Ames/micronucleus/aberration tests
Experiment: CCRIS mutagenicity studies
[1] = Test System: AMES SALMONELLA TYPHIMURIUM, Strain/Indicator: TA100, Metabolic Activation: NONE, Method: STANDARD PLATE
[2] = Test System: AMES SALMONELLA TYPHIMURIUM, Strain/Indicator: TA98, Metabolic Activation: NONE, Method: PREINCUBATION
[3] = Test System: AMES SALMONELLA TYPHIMURIUM, Strain/Indicator: TA100, Metabolic Activation: NONE, Method: PREINCUBATION

O=Cc1ccc(CO)o1
mutagenic call (End Point: In vivo micronucleus, Test System: Peripheral blood normochromatic erythrocytes, Species: Mouse, Strain/Sex: B6C3F1/Female, Route: Oral): inactive; negative | mutagenic call (End Point: In vivo micronucleus, Test System: Peripheral blood normochromatic erythrocytes, Species: Mouse, Strain/Sex: B6C3F1/Male, Route: Oral): inactive; negative | mutagenic call (Test System: AMES SALMONELLA TYPHIMURIUM, Strain/Indicator: TA98, Metabolic Activation: NONE, Method: STANDARD PLATE): inactive; negative | mutagenic call (Test System: AMES SALMONELLA TYPHIMURIUM, Strain/Indicator: TA98, Metabolic Activation: S-9, Method: STANDARD PLATE): active; positive | mutagenic call [1]: inactive; negative | mutagenic call (Test System: AMES SALMONELLA TYPHIMURIUM, Strain/Indicator: TA100, Metabolic Activation: S-9, Method: STANDARD PLATE): active; positive | mutagenic call (Test System: AMES SALMONELLA TYPHIMURIUM, Strain/Indicator: TA104, Metabolic Activation: NONE, Method: PREINCUBATION): inactive; negative | mutagenic call (Test System: Ames Salmonella typhimurium, Strain/Indicator: TA97, Metabolic Activation: Hamster, Liver, S-9, Aroclor 1254 (10 and 30%), Method: Preincubation): inactive; negative | mutagenic call (Test System: Ames Salmonella typhimurium, Strain/Indicator: TA97, Metabolic Activation: None, Method: Preincubation): inactive; negative | mutagenic call (Test System: Ames Salmonella typhimurium, Strain/Indicator: TA97, Metabolic Activation: Rat, Liver, S-9, Aroclor 1254 (10 and 30%), Method: Preincubation): inactive; negative | mutagenic call (Test System: Ames Salmonella typhimurium, Strain/Indicator: TA98, Metabolic Activation: Hamster, Liver, S-9, Aroclor 1254 (10 and 30%), Method: Preincubation): inactive; negative | mutagenic call (Test System: Ames Salmonella typhimurium, Strain/Indicator: TA98, Metabolic Activation: None, Method: Preincubation): inactive; negative | mutagenic call (Test System: Ames Salmonella typhimurium, Strain/Indicator: TA98, Metabolic Activation: Rat, Liver, S-9, Aroclor 1254 (10 and 30%), Method: Preincubation): inactive; negative | mutagenic call (Test System: Ames Salmonella typhimurium, Strain/Indicator: TA98, Metabolic Activation: Rat, Liver, S-9, Aroclor 1254,10%, Method: Preincubation): inactive; negative | mutagenic call (Test System: Ames Salmonella typhimurium, Strain/Indicator: TA100, Metabolic Activation: Hamster, Liver, S-9, Aroclor 1254 (10 and 30%), Method: Preincubation): inactive; negative | mutagenic call (Test System: Ames Salmonella typhimurium, Strain/Indicator: TA100, Metabolic Activation: Rat, Liver, S-9, Aroclor 1254 (10 and 30%), Method: Preincubation): inactive; negative | mutagenic call (Test System: Ames Salmonella typhimurium, Strain/Indicator: TA100, Metabolic Activation: Rat, Liver, S-9, Aroclor 1254,10%, Method: Preincubation): inactive; negative | mutagenic call (Test System: Ames Salmonella typhimurium, Strain/Indicator: TA102, Metabolic Activation: Hamster, Liver, S-9, Aroclor 1254 (10 and 30%), Method: Preincubation): inactive; negative | mutagenic call (Test System: Ames Salmonella typhimurium, Strain/Indicator: TA102, Metabolic Activation: None, Method: Preincubation): inactive; negative | mutagenic call (Test System: Ames Salmonella typhimurium, Strain/Indicator: TA102, Metabolic Activation: Rat, Liver, S-9, Aroclor 1254 (10 and 30%), Method: Preincubation): inactive; negative | mutagenic call (Test System: Ames Salmonella typhimurium, Strain/Indicator: TA1535, Metabolic Activation: None, Method: Preincubation): inactive; negative | mutagenic call (Test System: CHINESE HAMSTER V-79, Strain/Indicator: V-79 (HPRT)/6-THIOGUANINE, Metabolic Activation: NONE, Method: STANDARD PLATE): active; positive | mutagenic call (Test System: E. coli, Strain/Indicator: WP2 uvrA/pKM101, Metabolic Activation: None, Method: Preincubation): inactive; negative | mutagenic call (Test System: E. coli, Strain/Indicator: WP2 uvrA/pKM101, Metabolic Activation: Rat, Liver, S-9, Aroclor 1254 (10%), Method: Preincubation): inactive; negative

Cc1cccc2c3c(c4cc5ccccc5cc4c12)N3
mutagenic call [2]: active; positive

CC(N)=S
mutagenic call (Test System: AMES SALMONELLA TYPHIMURIUM, Strain/Indicator: TA102, Metabolic Activation: RAT LIVER S-9, PHENOBARBITAL AND 5,6-BENZOFLAVONE, Method: STANDARD PLATE): inactive; negative | mutagenic call (Test System: AMES SALMONELLA TYPHIMURIUM, Strain/Indicator: TA2638, Metabolic Activation: RAT LIVER S-9, PHENOBARBITAL AND 5,6-BENZOFLAVONE, Method: STANDARD PLATE): inactive; negative | mutagenic call (Test System: E. COLI, Strain/Indicator: WP2 (PKM101), Metabolic Activation: RAT LIVER S-9, PHENOBARBITAL AND 5,6-BENZOFLAVONE, Method: STANDARD PLATE): inactive; negative | mutagenic call (Test System: E. COLI, Strain/Indicator: WP2 UVRA (PKM101), Metabolic Activation: RAT LIVER S-9, PHENOBARBITAL AND 5,6-BENZOFLAVONE, Method: STANDARD PLATE): inactive; negative | mutagenic call (Test System: E. COLI, Strain/Indicator: WP2 UVRA, Metabolic Activation: HAMSTER, LIVER, S-9, AROCLOR 1254, Method: STANDARD PLATE): inactive; negative | mutagenic call (Test System: E. COLI, Strain/Indicator: WP2 UVRA, Metabolic Activation: HAMSTER, LIVER, S-9, Method: STANDARD PLATE): inactive; negative | mutagenic call (Test System: E. COLI, Strain/Indicator: WP2 UVRA, Metabolic Activation: MOUSE, LIVER, S-9, AROCLOR 1254, Method: STANDARD PLATE): inactive; negative | mutagenic call (Test System: E. COLI, Strain/Indicator: WP2 UVRA, Metabolic Activation: MOUSE, LIVER, S-9, Method: STANDARD PLATE): inactive; negative | mutagenic call (Test System: E. COLI, Strain/Indicator: WP2 UVRA, Metabolic Activation: NONE, Method: STANDARD PLATE): inactive; negative | mutagenic call (Test System: E. COLI, Strain/Indicator: WP2 UVRA, Metabolic Activation: RAT, LIVER, S-9, AROCLOR 1254, Method: STANDARD PLATE): inactive; negative | mutagenic call (Test System: E. COLI, Strain/Indicator: WP2 UVRA, Metabolic Activation: RAT, LIVER, S-9, Method: STANDARD PLATE): inactive; negative | mutagenic call (Test System: MOUSE LYMPHOMA, Strain/Indicator: L5178Y (TK+/TK-), Metabolic Activation: NONE, Method: SUSPENSION/PLATE): active; positive | mutagenic call (Test System: MOUSE LYMPHOMA, Strain/Indicator: L5178Y (TK+/TK-), Metabolic Activation: RAT, LIVER, S-9, AROCLOR 1254, Method: SUSPENSION/PLATE): active; positive | mutagenic call (Test System: MOUSE LYMPHOMA, Strain/Indicator: L5178Y (TK+/TK-), Metabolic Activation: RAT, LIVER, S-9, Method: SUSPENSION/PLATE): inactive; negative

CC/C=C\CC/C=C/C=O
mutagenic call [3]: inactive; negative | mutagenic call (Test System: AMES SALMONELLA TYPHIMURIUM, Strain/Indicator: TA100, Metabolic Activation: NONE, Method: PREINCUBATION (THREEFOLD CELL DENSITY)): inactive; negative | mutagenic call (Test System: AMES SALMONELLA TYPHIMURIUM, Strain/Indicator: TA100, Metabolic Activation: RAT, LIVER, S-9, AROCLOR 1254, Method: PREINCUBATION (THREEFOLD CELL DENSITY)): inactive; negative

C1=CC2OC2c2cccnc21 (centres undefined)
mutagenic call [1]: inactive; negative | mutagenic call (Test System: AMES SALMONELLA TYPHIMURIUM, Strain/Indicator: TA100, Metabolic Activation: RAT, LIVER, S-9, AROCLOR 1254 (10% OR 20%), Method: STANDARD PLATE): inactive; negative

CC(=O)Oc1ccc(CCl)cc1
mutagenic call [1]: active; positive

c1ccc(N2CCNCC2)cc1
mutagenic call (Test System: AMES SALMONELLA TYPHIMURIUM, Strain/Indicator: TA97, Metabolic Activation: HAMSTER, LIVER, S-9, AROCLOR 1254, Method: PREINCUBATION): inactive; negative | mutagenic call (Test System: AMES SALMONELLA TYPHIMURIUM, Strain/Indicator: TA97, Metabolic Activation: NONE, Method: PREINCUBATION): inactive; negative | mutagenic call (Test System: AMES SALMONELLA TYPHIMURIUM, Strain/Indicator: TA97, Metabolic Activation: RAT, LIVER, S-9, AROCLOR 1254, Method: PREINCUBATION): inactive; negative | mutagenic call (Test System: AMES SALMONELLA TYPHIMURIUM, Strain/Indicator: TA98, Metabolic Activation: HAMSTER, LIVER, S-9, AROCLOR 1254, Method: PREINCUBATION): inactive; negative | mutagenic call [2]: inactive; negative | mutagenic call (Test System: AMES SALMONELLA TYPHIMURIUM, Strain/Indicator: TA98, Metabolic Activation: RAT, LIVER, S-9, AROCLOR 1254, Method: PREINCUBATION): inactive; negative | mutagenic call (Test System: AMES SALMONELLA TYPHIMURIUM, Strain/Indicator: TA100, Metabolic Activation: HAMSTER, LIVER, S-9, AROCLOR 1254, Method: PREINCUBATION): inactive; negative | mutagenic call [3]: inactive; negative | mutagenic call (Test System: AMES SALMONELLA TYPHIMURIUM, Strain/Indicator: TA100, Metabolic Activation: RAT, LIVER, S-9, AROCLOR 1254, Method: PREINCUBATION): inactive; negative
